Assay results published in ChEMBL document CHEMBL5120779, “Thiazolidinedione-Based Structure Modification of Celastrol Provides Thiazolidinedione-Conjugated Derivatives as Potent Agents against Non-Small-Cell Lung Cancer Cells through a Mitochondria-Mediated Apoptotic Pathway” (J Nat Prod, 2022).

Assays:
[1] = Cytotoxicity against human MRC5 cells assessed as inhibition of cell growth measured after 96 hrs by MTT assay; format: toxicity, cell-based
A549 [2] = test: cells; conditions: Homo sapiens, A549, 96 h
Description: Cytotoxicity against human A549 cells assessed as inhibition of cell growth measured after 96 hrs by MTT assay

[3] = Selectivity index, ratio of IC50 for human MRC5 cells to IC50 for human A549 cells; format: toxicity; conditions: MRC5 cells and A549 cells, read-out: Ratio IC50
A549 [4] = test: Induction of apoptosis in human A549 cells assessed as early apoptotic cells at 0.5 uM incubated for 48 hrs by Annexin V-FITC/propidium iodide staining based flow cytometry (reference value: 0.11%); format: functional
A549 [5] = test: Cytotoxicity against human A549 cells assessed as inhibition of cell proliferation at 0.125 to 2 uM by MTT assay; format: functional, cell-based; conditions: dose 0.125-2 µM, time 24-72 hrs, TDE = time-dependent effect
A549 [6] = test: Induction of apoptosis in human A549 cells assessed as necrotic cells at 0.5 uM incubated for 48 hrs by Annexin V-FITC/propidium iodide staining based flow cytometry (reference value: 3.36%); format: functional
A549 [7] = test: Induction of apoptosis in human A549 cells assessed as viable cells at 0.5 uM incubated for 48 hrs by Annexin V-FITC/propidium iodide staining based flow cytometry (reference value: 95.7%); format: functional; conditions: read-out: Activity
A549 [8] = test: Cytotoxicity against human A549 cells assessed as inhibition of cell proliferation measured after 24 to 72 hrs by MTT assay; format: functional, cell-based; conditions: dose 0.125-2 µM, time 24-72 hrs, DDE = dose-dependent effect
A549 [9] = test: Induction of apoptosis in human A549 cells assessed as late apoptotic cells at 0.5 uM incubated for 48 hrs by Annexin V-FITC/propidium iodide staining based flow cytometry (reference value: 0.82%); format: functional
A549 [10] = test: Potency index, ratio of celastrol IC50 to test compound IC50 for cytotoxicity against human A549 cells by MTT assay; format: functional

| SMILES | IC50 at 96 h [1] [µM] | IC50 (A549 [2]) [µM] | selectivity ratio [3] | further results |
| --- | --- | --- | --- | --- |
| CC1=C(O)C(=O)C=C2C1=CC=C1[C@@]2(C)CC[C@@]2(C)[C@@H]3C[C@](C)(C(=O)N4CCN(C(=O)CN5C(=O)CSC5=O)CC4)CC[C@]3(C)CC[C@]12C | 5.7 | 1.55 | 3.68 |  |
| CC1=C(O)C(=O)C=C2C1=CC=C1[C@@]2(C)CC[C@@]2(C)[C@@H]3C[C@](C)(C(=O)N4CCN(C(=O)CN5C(=O)S/C(=C\c6cccc(C)c6)C5=O)CC4)CC[C@]3(C)CC[C@]12C | 3.19 | 0.53 | 6.01 |  |
| CC1=C(O)C(=O)C=C2C1=CC=C1[C@@]2(C)CC[C@@]2(C)[C@@H]3C[C@](C)(C(=O)N4CCN(C(=O)CN5C(=O)S/C(=C\c6ccc(C)cc6)C5=O)CC4)CC[C@]3(C)CC[C@]12C | 2.5 | 0.51 | 4.91 |  |
| CC1=C(O)C(=O)C=C2C1=CC=C1[C@@]2(C)CC[C@@]2(C)[C@@H]3C[C@](C)(C(=O)N4CCN(C(=O)CN5C(=O)S/C(=C\C6CCCCC6)C5=O)CC4)CC[C@]3(C)CC[C@]12C | 3.61 | 0.55 | 6.56 |  |
| CC1=C(O)C(=O)C=C2C1=CC=C1[C@@]2(C)CC[C@@]2(C)[C@@H]3C[C@](C)(C(=O)N4CCN(C(=O)CN5C(=O)S/C(=C\c6ccc(Br)cc6)C5=O)CC4)CC[C@]3(C)CC[C@]12C | 3.71 | 0.51 | 7.27 |  |
| CC1=C(O)C(=O)C=C2C1=CC=C1[C@@]2(C)CC[C@@]2(C)[C@@H]3C[C@](C)(C(=O)N4CCN(C(=O)CN5C(=O)S/C(=C\c6cccc(Cl)c6)C5=O)CC4)CC[C@]3(C)CC[C@]12C | 3.16 | 0.48 | 6.58 |  |
| COc1cccc(/C=C2\SC(=O)N(CC(=O)N3CCN(C(=O)[C@]4(C)CC[C@]5(C)CC[C@]6(C)C7=CC=C8C(=CC(=O)C(O)=C8C)[C@]7(C)CC[C@@]6(C)[C@@H]5C4)CC3)C2=O)c1 | 2.38 | 0.36 | 6.61 |  |
| CC1=C(O)C(=O)C=C2C1=CC=C1[C@@]2(C)CC[C@@]2(C)[C@@H]3C[C@](C)(C(=O)N4CCN(C(=O)CN5C(=O)S/C(=C\c6ccc7c(c6)OCO7)C5=O)CC4)CC[C@]3(C)CC[C@]12C | 4 | 0.35 | 9.43 |  |
| CC1=C(O)C(=O)C=C2C1=CC=C1[C@@]2(C)CC[C@@]2(C)[C@@H]3C[C@](C)(C(=O)N4CCN(C(=O)CN5C(=O)S/C(=C\c6ccco6)C5=O)CC4)CC[C@]3(C)CC[C@]12C | 1.05 | 0.17 | 6.18 |  |
| CC1=C(O)C(=O)C=C2C1=CC=C1[C@@]2(C)CC[C@@]2(C)[C@@H]3C[C@](C)(C(=O)N4CCN(C(=O)CN5C(=O)S/C(=C\c6ccc(N(C)C)cc6)C5=O)CC4)CC[C@]3(C)CC[C@]12C | 4.77 | 0.94 | 5.07 |  |
| CC1=C(O)C(=O)C=C2C1=CC=C1[C@@]2(C)CC[C@@]2(C)[C@@H]3C[C@](C)(C(=O)N4CCN(C(=O)CN5C(=O)S/C(=C\c6ccccc6)C5=O)CC4)CC[C@]3(C)CC[C@]12C | 2.51 | 0.4 | 6.28 |  |
| CC1=C(O)C(=O)C=C2C1=CC=C1[C@@]2(C)CC[C@@]2(C)[C@@H]3C[C@](C)(C(=O)N4CCN(C(=O)CN5C(=O)S/C(=C\C6CCCC6)C5=O)CC4)CC[C@]3(C)CC[C@]12C | 3.21 | 0.17 | 18.9 |  |
| CC1=C(O)C(=O)C=C2C1=CC=C1[C@@]2(C)CC[C@@]2(C)[C@@H]3C[C@](C)(C(=O)N4CCN(C(=O)CN5C(=O)S/C(=C\c6cccc(Br)c6)C5=O)CC4)CC[C@]3(C)CC[C@]12C | 4.02 | 1.06 | 3.79 |  |
| CC1=C(O)C(=O)C=C2C1=CC=C1[C@@]2(C)CC[C@@]2(C)[C@@H]3C[C@](C)(C(=O)N4CCN(C(=O)CN5C(=O)S/C(=C\c6ccc(Cl)cc6)C5=O)CC4)CC[C@]3(C)CC[C@]12C | 3.08 | 0.42 | 7.33 |  |
| CC1=C(O)C(=O)C=C2C1=CC=C1[C@@]2(C)CC[C@@]2(C)[C@@H]3C[C@](C)(C(=O)O)CC[C@]3(C)CC[C@]12C [CELASTROL] | 4.4 | 1.1 | 4 | Activity (A549 [4]): 1.12%; Activity (A549 [5]): Tde; Activity (A549 [6]): 4.6%; viability at 0.5 µM (A549 [7]): 87.3%; Activity (A549 [8]): Dde; Activity (A549 [9]): 6.97% |
| CC1=C(O)C(=O)C=C2C1=CC=C1[C@@]2(C)CC[C@@]2(C)[C@@H]3C[C@](C)(C(=O)N4CCN(C(=O)CN5C(=O)S/C(=C\C(C)C)C5=O)CC4)CC[C@]3(C)CC[C@]12C | 2.93 | 0.09 | 32.6 | Ratio IC50 (A549 [10]): 12.2 |
| CC1=C(O)C(=O)C=C2C1=CC=C1[C@@]2(C)CC[C@@]2(C)[C@@H]3C[C@](C)(C(=O)N4CCN(C(=O)CN5C(=O)S/C(=C\c6cccc(F)c6)C5=O)CC4)CC[C@]3(C)CC[C@]12C | 3.18 | 0.4 | 7.95 |  |
| CC1=C(O)C(=O)C=C2C1=CC=C1[C@@]2(C)CC[C@@]2(C)[C@@H]3C[C@](C)(C(=O)N4CCN(C(=O)CN5C(=O)S/C(=C\c6cccs6)C5=O)CC4)CC[C@]3(C)CC[C@]12C | 1.27 | 0.36 | 3.53 |  |
| CC1=C(O)C(=O)C=C2C1=CC=C1[C@@]2(C)CC[C@@]2(C)[C@@H]3C[C@](C)(C(=O)N4CCN(C(=O)CN5C(=O)S/C(=C\c6ccc(F)cc6)C5=O)CC4)CC[C@]3(C)CC[C@]12C | 2.75 | 0.37 | 7.43 |  |
| COc1ccc(/C=C2\SC(=O)N(CC(=O)N3CCN(C(=O)[C@]4(C)CC[C@]5(C)CC[C@]6(C)C7=CC=C8C(=CC(=O)C(O)=C8C)[C@]7(C)CC[C@@]6(C)[C@@H]5C4)CC3)C2=O)cc1 | 2.04 | 0.32 | 6.38 |  |
| CCCC/C=C1\SC(=O)N(CC(=O)N2CCN(C(=O)[C@]3(C)CC[C@]4(C)CC[C@]5(C)C6=CC=C7C(=CC(=O)C(O)=C7C)[C@]6(C)CC[C@@]5(C)[C@@H]4C3)CC2)C1=O | 3.44 | 0.32 | 10.8 |  |
